Entries after “also recorded” stand apart in the source; their conditions may differ. Where two headings read alike, the source gives them in different places. Square brackets hold non-standard residues; d marks the D form. Ends that are not written are not given here. βLeu = beta-Leu
What was measured:
[1] = molecular target: T1, CDK2/Cyclin E (Homo sapiens, UniProt P24864); test: CDK2/Cyclin E kinase assay, phosphorylation of GST-Rb; format: biochemical
T1 construct: 6xHis; made in house; host or cells: Sf9 insect cells (baculovirus co-expression)
Description: (§1) The phosphorylation reaction mixture (total volume 40 μl) consisted of 50 mM HEPES pH 7.4, 20 mM MgCl2, 5 mM EGTA, 2 mM DTT, 20 mM β-glycerophosphate, 2 mM NaF, 1 mM Na3VO4, Protease Inhibitors Cocktail (Sigma, see above), BSA 0.5 mg/ml, 1 μg purified enzyme complex, 10 μl of GST-Rb-Sepharose beads, 100 μM ATP, 0.2 μCi ^32P-ATP. The reaction was carried out for 30 min at 30° C. at constant shaking. At the end of this period 100 μl of 50 mM HEPES, pH 7.4 and 1 mM ATP were added to each well and the total volume was transferred onto GFC filtered plate. The plate was washed 5 times with 200 μl of 50 mM HEPES, pH 7.4 and 1 mM ATP. To each well were added 50 μl scintillant liquid and the radioactivity of the samples was measured on Scintilation counter (Topcount, HP). The IC50 values of different peptides were calculated using GraFit software.

[2] = molecular target: T2, Cyclin D1 (Homo sapiens, UniProt P24385); test: Competitive Cyclin D1 binding assay (ELISA), immobilised biotinylated p21 (149-159); details: for IC50: immobilised p21 (149-159) peptide
T2 construct: made in house
Description: The amount of bound Cyclin D1/Cyclin A was immunodetected and quantified by Turbo-ELISA reagent (PIERCE).
The next important question was if these peptides share the same kinase inhibitory mechanism (bind to the same Cyclin docking site).

[3] = molecular target: T3, CDK4/Cyclin D1 (Homo sapiens, UniProt P24385); test: CDK4/Cyclin D1 kinase assay, phosphorylation of GST-Rb; format: biochemical
T3 construct: made in house; host or cells: CDK4: Sf9 insect cells (baculovirus)
Description: as §1
Peptides were synthesized as described above. Cyclin D1 was expressed in E coli BL21(DE3) using PET expression vector and purified from the inclusion bodies. After refolding Cyclin D1 was cross-linked on SulfoLink agarose support (PIERCE). CDK4-6×His was expressed in Sf9 insect cells infected with the appropriate baculovirus construct and purified by metal-affinity chromatography (Quiagen). […] CDK4/Cyclin D1 phosphorilation of Rb was determined by incorporation of radio-labeled phosphate in GST-Rb in 96-well format kinase assay. […] The reaction was carried out for 30 min at 30 C at constant shaking. The GST-Rb-Sepharose beads were washed with 50 mM HEPES and 1 mM ATP and the radioactivity was measured on Scintillation counter (Topcount, HP)

[4] = molecular target: T4, CDK2/cyclin A (Homo sapiens, UniProt P20248); test: Functional kinase assay, CDK2/cyclin A phosphorylation of GST-pRb(773-928); format: biochemical; details: read-out: Inhibitory activity IC50 ± SD, Functional kinase assay
Description: Reactions were stopped on ice, followed by addition of 5 μL/well of glutathione-Sepharose 4B (Amersham Biosciences) and further incubation with shaking for 30 min at room temperature. The mixtures were then filtered on Whatman GF/C filterplates and washed 4 times with 0.2 mL/well of 50 mM HEPES containing 1 mM ATP. Plates were dried, sealed, and scintillant (Microscint 40) was added. Incorporated radioactivity was measured using a scintillation counter (TopCount, Packard Instruments, Pangbourne, Berks, UK). Half-maximal inhibition (IC50) was calculated from dose-response curves.

[5] = molecular target: T5, CDK1/Cyclin B (Homo sapiens, UniProt P14635); test: CDK1/Cyclin B kinase assay, phosphorylation of GST-Rb; format: biochemical; details: CDK1-Cyclin B induced phosphorylation of GST-Rb
T5 construct: 6xHis; made in house; host or cells: Sf9 insect cells (baculovirus co-expression)
Description: as §1

[6] = molecular target: T5, CDK1/Cyclin B; test: CDK1/Cyclin B kinase assay, phosphorylation of Histone 1; format: biochemical; details: for IC50: CDK1-Cyclin B induced phosphorylation of Histone 1
Description: (§2) Histone 1 phosphorylation induced by CDK2/Cyclin E and CDK1/Cyclin B was measured using similar method. The concentration of Histone 1 in the kinase reaction was 1 mg/ml (unless different stated).

[7] = molecular target: T6, Cyclin A (Homo sapiens, UniProt P20248); test: Pull-down with immobilised biotinylated peptide: cyclin A; format: binding; details: biotinylated peptide on streptavidin-agarose beads
Description: (§3) A biotinylated version of p21(149-159) was used in “pull-down” experiments with the purified CDK sub-units, CDK2, CDK4, cyclin A, cyclin D1, and with the complexes of CDK2/cyclin A or CDK4/cyclin D1 kinases, in order to determine the binding partner of the peptide. The biotinylated peptide was pre-immobilised on streptavidin-agarose beads. […] Both CDK2 and CDK4 were “pulled down”, however, with biotinylated p21(149-159)-streptavidin-agarose beads when they were in a complex with cyclin A or cyclin D1, respectively. Similar results were obtained with cyclin E and CDK2/cyclin E complex. […] Such a method may be utilised either alone or together with a candidate substance to identify cyclin binding moities and/or inhibitors of cyclin-CDK interaction.

[8] = molecular target: T7, CDK4 (Homo sapiens, UniProt P11802); test: Pull-down with immobilised biotinylated peptide: CDK4; format: binding; details: in the absence of cyclin partner
T7 construct: 6xHis; made in house; host or cells: Sf9 insect cells (baculovirus)
Description: as §3

[9] = molecular target: T2, Cyclin D1; test: Pull-down with immobilised biotinylated peptide: cyclin D1; format: binding; details: biotinylated peptide on streptavidin-agarose beads
Description: as §3

[10] = molecular target: CDK2 (Homo sapiens, UniProt P24941); test: Pull-down with immobilised biotinylated peptide: CDK2; format: binding; details: in the absence of cyclin partner
Description: as §3

[11] = molecular target: T1, CDK2/Cyclin E; test: CDK2/Cyclin E kinase assay, phosphorylation of Histone 1; format: biochemical
Description: as §2

[12] = molecular target: cyclin B (Homo sapiens, UniProt P14635); test: Pull-down with immobilised peptide: cyclin B; format: binding
[13] = molecular target: T4, CDK2/cyclin A; test: CDK2/cyclin A kinase assay, substrate pRb(773-928); format: biochemical; details: relative to H-His-Ala-Lys-Arg-Arg-Leu-Ile-Phe-NH2 (=1), pRb substrate, [ATP] = 100 μM
Description: Reactions were stopped on ice, followed by filtration through p81 filterplates (Whatman Polyfiltronics, Kent, UK).

[14] = molecular target: T6, Cyclin A; test: Cyclin A binding assay, immobilised biotinyl-Ahx-[…]NH2; details: relative to H-His-Ala-Lys-Arg-Arg-Leu-Ile-Phe-NH2 (=1)
[15] = molecular target: T3, CDK4/Cyclin D1; details: WO97/42222 and Ball et al., cited from earlier work
[16] = molecular target: T1, CDK2/Cyclin E; details: GST-Rb phosphorylation; Ball et al.; cited from earlier work
[17] = GST-pRb substrate, [ATP] = 100 μM

T5 sequence (P14635 whole entry): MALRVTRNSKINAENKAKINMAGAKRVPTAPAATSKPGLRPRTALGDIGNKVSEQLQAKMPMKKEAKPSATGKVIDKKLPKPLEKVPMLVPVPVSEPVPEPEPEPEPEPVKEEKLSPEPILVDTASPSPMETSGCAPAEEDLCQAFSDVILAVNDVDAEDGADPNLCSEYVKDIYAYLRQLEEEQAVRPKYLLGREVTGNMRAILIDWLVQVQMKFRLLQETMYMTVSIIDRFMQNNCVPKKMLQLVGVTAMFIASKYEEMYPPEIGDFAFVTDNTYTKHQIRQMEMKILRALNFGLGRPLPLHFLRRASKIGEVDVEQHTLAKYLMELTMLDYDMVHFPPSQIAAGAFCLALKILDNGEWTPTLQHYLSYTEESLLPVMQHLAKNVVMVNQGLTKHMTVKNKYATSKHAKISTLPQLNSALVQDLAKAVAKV
T5 sequence (P06493 whole entry partner): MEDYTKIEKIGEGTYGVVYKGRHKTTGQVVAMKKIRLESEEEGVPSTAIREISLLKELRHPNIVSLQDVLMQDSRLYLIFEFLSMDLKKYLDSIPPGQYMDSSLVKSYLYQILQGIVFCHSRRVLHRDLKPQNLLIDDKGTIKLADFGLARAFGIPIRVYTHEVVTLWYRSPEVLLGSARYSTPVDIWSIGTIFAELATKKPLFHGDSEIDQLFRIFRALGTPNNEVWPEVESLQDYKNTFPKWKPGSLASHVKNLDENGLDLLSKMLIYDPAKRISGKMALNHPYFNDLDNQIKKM
T2 sequence (P24385 whole entry): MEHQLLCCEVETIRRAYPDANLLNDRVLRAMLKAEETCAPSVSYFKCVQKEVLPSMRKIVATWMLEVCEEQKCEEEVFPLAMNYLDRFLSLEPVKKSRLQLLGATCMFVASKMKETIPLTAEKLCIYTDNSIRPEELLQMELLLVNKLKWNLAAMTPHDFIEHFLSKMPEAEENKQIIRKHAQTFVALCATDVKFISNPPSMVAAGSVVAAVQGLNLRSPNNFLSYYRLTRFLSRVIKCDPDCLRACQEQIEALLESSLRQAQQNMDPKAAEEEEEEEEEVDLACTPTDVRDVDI
T3 sequence (P24385 whole entry): as above
T3 sequence (P11802 whole entry partner): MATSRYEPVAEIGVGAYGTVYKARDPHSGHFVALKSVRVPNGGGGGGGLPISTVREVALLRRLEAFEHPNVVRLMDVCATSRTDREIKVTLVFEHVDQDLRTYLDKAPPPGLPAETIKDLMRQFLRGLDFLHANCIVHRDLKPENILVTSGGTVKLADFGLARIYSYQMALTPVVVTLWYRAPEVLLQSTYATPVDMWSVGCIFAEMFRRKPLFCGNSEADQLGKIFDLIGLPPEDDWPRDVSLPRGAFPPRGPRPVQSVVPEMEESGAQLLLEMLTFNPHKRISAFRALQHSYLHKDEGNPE
T6 sequence (P20248 whole entry): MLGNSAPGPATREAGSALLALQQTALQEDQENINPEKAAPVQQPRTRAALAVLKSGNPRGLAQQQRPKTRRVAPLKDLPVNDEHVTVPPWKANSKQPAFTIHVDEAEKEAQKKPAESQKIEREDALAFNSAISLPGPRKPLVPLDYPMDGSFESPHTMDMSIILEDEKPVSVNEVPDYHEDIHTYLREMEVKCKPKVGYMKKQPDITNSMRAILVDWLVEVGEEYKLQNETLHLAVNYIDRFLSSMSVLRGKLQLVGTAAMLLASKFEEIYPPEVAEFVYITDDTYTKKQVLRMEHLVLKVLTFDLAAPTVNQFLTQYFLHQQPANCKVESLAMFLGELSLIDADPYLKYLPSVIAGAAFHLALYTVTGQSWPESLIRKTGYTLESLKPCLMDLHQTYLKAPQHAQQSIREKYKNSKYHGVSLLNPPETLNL
T7 sequence (P11802 whole entry, species assumed): as the sequence (P11802 whole entry partner) above
Chain of cyclin B (P14635 whole entry): as the sequence (P14635 whole entry) above

CC(C)C[C@H](NC(=O)[C@H](CC(=O)O)NC(=O)[C@H](CC(C)C)NC(=O)[C@H](CCCNC(=N)N)NC(=O)[C@H](CCCNC(=N)N)NC(=O)[C@H](CCCCN)NC(=O)[C@H](CO)NC(=O)[C@@H](N)Cc1c[nH]cn1)C(N)=O
Kinase Inhibition Cyclin E/CDK2 % Inhibition ([1]; phosphorylation of pRb): 74%
competition with Biotin-DFYHSKRRLIF for binding to Cyclin D1, in words [2]: not able
IC50 [2]: > 200 µM
inhibition of CDK4/Cyclin D1 phosphorylation of GST-Rb, in words [3]: not able to inhibit
Kinase Inhibition Cyclin D1/CDK4 % Inhibition ([3]; phosphorylation of pRb): 24%

CC(C)C[C@H](NC(=O)[C@H](CCCNC(=N)N)NC(=O)[C@H](CCCNC(=N)N)NC(=O)[C@H](CCCCN)NC(=O)[C@H](CO)NC(=O)[C@@H](N)Cc1c[nH]cn1)C(=O)N[C@@H](Cc1ccccc1)C(=O)NCC(N)=O
IC50 [2]: > 200 µM

CC[C@H](NC(=O)[C@H](C)NC(=O)[C@@H](N)CO)C(=O)N[C@@H](CCCNC(=N)N)C(=O)N[C@@H](CC(N)=O)C(=O)N[C@@H](CC(C)C)C(=O)N[C@@H](Cc1ccccc1)C(=O)NCC(N)=O [SEQ ID NO. 41, H-Ser-Ala-Abu-Arg-Asn-Leu-Phe-Gly-NH2]
IC50 [2]: > 200 µM

CC(=O)N[C@@H](CC(C)C)C(=O)N[C@@H](CC(N)=O)C(=O)N[C@@H](Cc1ccc(F)cc1)C(N)=O [VI.42]
IC50 [4]: 139 ± 10 µM

CC[C@H](C)[C@H](NC(=O)[C@H](CC(C)C)NC(=O)[C@H](CCCNC(=N)N)NC(=O)[C@H](CCCNC(=N)N)NC(=O)[C@H](CCCCN)NC(=O)[C@H](C)NC(=O)[C@H](Cc1c[nH]cn1)NC(=O)[C@H](Cc1ccc(O)cc1)NC(=O)[C@H](Cc1ccccc1)NC(=O)[C@@H](N)CC(=O)O)C(=O)N[C@@H](Cc1ccccc1)C(=O)N[C@@H](CO)C(N)=O [p21(149-160)Ser153Ala]
IC50 ([1]; read-out: IC50, CDK2-Cyclin E induced phosphorylation of GST-Rb): 40 nM
IC50 [5]: > 200 µM
IC50 [6]: > 200 µM

CC(C)C[C@H](NC(=O)[C@H](CC(=O)O)NC(=O)[C@H](CC(C)C)NC(=O)[C@H](CCCNC(=N)N)NC(=O)[C@H](CCCNC(=N)N)NC(=O)[C@H](CCCCN)NC(=O)[C@@H](NC(=O)[C@@H]1CCCN1)C(C)C)C(N)=O [reference compound]
Kinase Inhibition Cyclin E/CDK2 % Inhibition ([1]; phosphorylation of pRb): 74%
IC50 ([1]; phosphorylation of pRb, read-out: Kinase Inhibition Cyclin E/CDK2 IC50): 2100 nM
competition with Biotin-DFYHSKRRLIF for binding to Cyclin D1, in words [2]: not able
IC50 [2]: > 100 µM
inhibition of CDK4/Cyclin D1 phosphorylation of GST-Rb, in words [3]: not able to inhibit
Kinase Inhibition Cyclin D1/CDK4 % Inhibition ([3]; phosphorylation of pRb): 58%
IC50 ([3]; phosphorylation of pRb, read-out: Kinase Inhibition Cyclin D1/CDK4 IC50): 99 µM

H-DFYHSKRRLIF-NH2 [p21(149-159)]
binding to cyclin A in pull-down [7]: bound
binding to CDK4 in pull-down [8]: failed to interact
IC50 [5]: > 200 µM
binding to cyclin D1 in pull-down [9]: bound
binding to CDK2 in pull-down [10]: failed to interact

H-DFYHSKRRLIFS-NH2 [p21(149-160)]
inhibition of CDK2/Cyclin E phosphorylation of GST-Rb, in words [1]: specifically inhibit
inhibition of CDK2/Cyclin E phosphorylation of Histone 1, in words [11]: completely inactive; also recorded: did not inhibit
inhibition of CDK2/Cyclin E phosphorylation of Histone 1, in words ([11]; listed as p21 (149-160)): do not inhibit
IC50 [5]: > 200 µM
pull-down of cyclin B (monomer or complex with CDK1) [12]: unable to precipitate
inhibition of CDK1/cyclin B phosphorylation of histone H1, in words [6]: did not have any significant effect
IC50 [6]: > 200 µM
inhibition of CDK4/Cyclin D1 phosphorylation of GST-Rb, in words [3]: very similar activity
inhibition at 100 µM [3, 17]: 70%

H-HAKRRLIF-NH2
IC50 [2]: 13 µM

HAKRRLF-NH2 [H-His-Ala-Lys-Arg-Arg-Leu-Phe-NH2]
Relative activity Kinase Inhibition ([13]; Ile158 substitutions): <0.1
Relative activity Cyclin A Binding ([14]; Ile158 substitutions): <0.1

HAKRRLFF-NH2
Relative activity Kinase Inhibition ([13]; Ile158 substitutions): 0.4
Relative activity Cyclin A Binding ([14]; Ile158 substitutions): 0.4

HAKRRLIK-NH2
Relative activity Kinase Inhibition ([13]; Phe159 substitutions): <0.1
Relative activity Cyclin A Binding ([14]; Phe159 substitutions): <0.1

HAKRRLIL-NH2
Relative activity Kinase Inhibition ([13]; Phe159 substitutions): 0.3
Relative activity Cyclin A Binding ([14]; Phe159 substitutions): <0.1

HAKRRLIW-NH2
Relative activity Kinase Inhibition ([13]; Phe159 substitutions): 0.3
Relative activity Cyclin A Binding ([14]; Phe159 substitutions): 0.1

HAKRRLIY-NH2
Relative activity Kinase Inhibition ([13]; Phe159 substitutions): 0.3
Relative activity Cyclin A Binding ([14]; Phe159 substitutions): 0.2

HAKRRLLF-NH2
Relative activity Kinase Inhibition ([13]; Ile158 substitutions): 1.2
Relative activity Cyclin A Binding ([14]; Ile158 substitutions): 0.6

KRRLIFSK [reference compound]
Kinase Inhibition Cyclin E/CDK2 % Inhibition [1, 17]: 60%
Kinase Inhibition Cyclin E/CDK2 IC30 [1, 17]: >200 µM
concentration for inhibitory activity against cyclin D1-CDK4 relative to parent p21(141-160) [15]: 1000 times
Kinase Inhibition Cyclin D1/CDK4 % Inhibition [3, 17]: 20%

VI.38 (Ac-RR[βLeu]F-NH2)
IC50 ([4]; recombinant human CDK2/cyclin A, GST-pRb(773-928) substrate, 30 min at 30° C): 216 µM

p21(141-160): 20-residue peptide derived from the C-terminus of p21^WAF1 (residues 141-160), Ball et al.
activity against cyclinD1/CDK4 relative to cyclinE/CDK2 [16]: 40 times
IC50 ([15]; Asp149Ala effect said not reproducible, read-out: IC50, cyclin D1-CDK4 inhibition): 100 nM

Source: US20050153894A1, “p21 peptides” (Cyclacel Limited, priority 1999, published 2005)
